This note sets out measurements from PMC10776880 (EXCLI Journal, 2023).

The target of this assay is T1, ABCG2 (breast cancer resistance protein, BCRP) (Homo sapiens, UniProt Q9UNQ0).
T1 sequence (Q9UNQ0 1-655): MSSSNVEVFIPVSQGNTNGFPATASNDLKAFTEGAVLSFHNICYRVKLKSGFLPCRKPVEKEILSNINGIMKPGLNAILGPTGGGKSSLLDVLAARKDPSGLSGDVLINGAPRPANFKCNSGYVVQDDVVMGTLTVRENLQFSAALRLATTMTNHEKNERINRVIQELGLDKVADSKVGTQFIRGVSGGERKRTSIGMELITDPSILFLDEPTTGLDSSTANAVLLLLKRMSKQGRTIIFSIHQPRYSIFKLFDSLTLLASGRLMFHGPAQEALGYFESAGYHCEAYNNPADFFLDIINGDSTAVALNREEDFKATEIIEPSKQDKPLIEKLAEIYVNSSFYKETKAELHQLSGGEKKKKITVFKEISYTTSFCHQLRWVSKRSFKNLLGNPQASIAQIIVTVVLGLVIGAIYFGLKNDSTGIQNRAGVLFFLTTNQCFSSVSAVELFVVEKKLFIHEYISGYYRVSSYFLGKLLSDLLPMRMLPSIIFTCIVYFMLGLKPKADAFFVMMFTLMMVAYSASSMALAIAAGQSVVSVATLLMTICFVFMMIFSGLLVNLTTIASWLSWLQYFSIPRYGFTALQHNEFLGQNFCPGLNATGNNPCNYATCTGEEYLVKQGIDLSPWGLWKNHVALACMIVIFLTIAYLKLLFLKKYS
Nature of the assay: Hoechst […] efflux inhibition by flow cytometry in HEK293-ABCG2 cells; 5D3 conformational antibody shift; kinetics with mitoxantrone. The assay is classed as cell-based.

Molecules are shown by their SMILES.

For orientation: IC50 means the concentration needed to halve the response being measured.

In the case of `Cc1cccc(C)c1OCC(=O)N[C@@H](Cc1ccccc1)[C@@H](O)C[C@H](Cc1ccccc1)NC(=O)[C@H](C(C)C)N1CCCNC1=O` [LPV, lopinavir], the IC50 stood at 23.4 µM.
